Results from US9221834B2 (Merck Sharp & Dohme Corp., priority 2010, dated 2015).

Biological target: T1, recombinant CETP (rCETP) (Homo sapiens, UniProt P11597)
T1 sequence (P11597 18-493): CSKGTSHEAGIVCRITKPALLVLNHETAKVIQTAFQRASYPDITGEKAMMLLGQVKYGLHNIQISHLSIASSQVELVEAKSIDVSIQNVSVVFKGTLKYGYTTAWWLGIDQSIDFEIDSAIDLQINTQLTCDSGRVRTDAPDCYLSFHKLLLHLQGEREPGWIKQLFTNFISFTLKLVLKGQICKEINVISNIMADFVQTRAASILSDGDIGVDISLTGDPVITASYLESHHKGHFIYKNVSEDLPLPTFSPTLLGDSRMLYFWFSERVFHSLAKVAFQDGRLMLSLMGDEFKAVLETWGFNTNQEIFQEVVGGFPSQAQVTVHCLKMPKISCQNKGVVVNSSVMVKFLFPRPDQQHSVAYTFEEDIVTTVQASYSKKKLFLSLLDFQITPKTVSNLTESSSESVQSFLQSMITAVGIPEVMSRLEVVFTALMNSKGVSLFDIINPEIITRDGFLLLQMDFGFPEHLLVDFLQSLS
Assay: RTA assay using recombinant CETP (2% RTA)
Assay type: biochemical
Conditions: RTA assay in 2% human serum; read-out: IC50
Experimental: In Vitro Radioactive Assays of CETP-Catalyzed CE and TG Transfer (RTA Assay)
Reagents and sources are: [3H] cholesteryl oleate (GE #TRK.886), [3H]
Both assays measure the transfer of [3H] cholesteryl oleate or [3H]triolein from exogenous LDL to HDL.
After a brief vortex, the solution is sonicated until clear and mixed with 20 mL of fresh human serum. The mixture is incubated overnight at 37° C. […] Once isolated the particles are dialyzed 3× in CETP buffer (50 mM Tris, pH 7.4, 100 mM NaCl, 1 mM EDTA). Human HDL is purchased from Intracel and used as the acceptor particles.
Transfer assays are performed in a 96-well v-bottom polypropylene plate. […] 1 μL of each test compound diluted in DMSO is added to 47 μL of assay cocktail per well and incubated at 37° C. for 1 hour. To initiate the transfer reaction, 2 μL radiolabeled LDL is added. After an additional 60 min of incubation at 37° C., the transfer action is terminated by precipitation of LDL with an equal volume of 20% W/V PEG 8000. The plates are centrifuged at 2000 rpm for 30 minutes at 4° C. A 40 μL aliquot of the HDL-containing supernatant is transferred to a Packard Optiplate with 200 μL of MicroScint 20. After mixing, plates are counted by liquid scintillation. Counts present in the supernatant for blanks (wells containing only HDL acceptor, CETP buffer and DMSO) are subtracted from those containing test compounds and used to correct for non-specific transfer.
Comparison of the counts of samples with inhibitors to an uninhibited (DMSO only) positive control yield a percent inhibition. A plot of percent inhibition vs. log of inhibitor concentration, fit to a Sigmoidal 4 parameter equation is used to calculate IC50.

| SMILES | IC50 [nM] |
| --- | --- |
| COc1ccc([C@H]2CC[C@H](C(=O)O)CC2)cc1-c1ccc(N2CCC2)nc1CN1C(=O)O[C@H](c2cc(C(F)(F)F)cc(C(F)(F)F)c2)[C@@H]1C [Example 73] | 8 |
| C[C@H]1[C@@H](c2cc(C(F)(F)F)cc(C(F)(F)F)c2)OC(=O)N1Cc1nc(N2CCC2)ccc1-c1cc(CCC(=O)O)ccc1Cl [Example 74] | 9 |
| COc1ccc([C@H]2C[C@@H]2C(=O)O)cc1-c1ccc(N2CCC2)nc1CN1C(=O)O[C@H](c2cc(C(F)(F)F)cc(C(F)(F)F)c2)[C@@H]1C [Example 75] | 9 |
| COc1ccc(CC(=O)O)cc1-c1c(C)cc(N2CCC2)nc1CN1C(=O)O[C@H](c2cc(C(F)(F)F)cc(C(F)(F)F)c2)[C@@H]1C [Example 76] | 14 |
| COc1ccc(C(C)(C)CC(=O)O)cc1-c1ccc(N2CCC2)nc1CN1C(=O)O[C@H](c2cc(C(F)(F)F)cc(C(F)(F)F)c2)[C@@H]1C [Example 77] | 15 |
| COc1cc2c(cc1-c1ccc(N3CCC3)nc1CN1C(=O)O[C@H](c3cc(C(F)(F)F)cc(C(F)(F)F)c3)[C@@H]1C)C(CC(=O)O)CC2 (some centres unmarked) [Example 78] | 18 |
| COc1cc(F)c(CCC(=O)O)cc1-c1ccc(N2CCC2)nc1CN1C(=O)O[C@H](c2cc(C(F)(F)F)cc(C(F)(F)F)c2)[C@@H]1C [Example 79] | 18 |
| COc1ccc(CC(=O)O)cc1-c1ccc(N2CCC2)nc1CN1C(=O)O[C@H](c2cc(C(F)(F)F)cc(C(F)(F)F)c2)[C@@H]1C [Example 80] | 36 |
| COc1ccc([C@H]2CC[C@H](C(=O)O)CC2)cc1-c1ccc(N2CCC2)nc1CN1C(=O)O[C@H](c2ccc(F)c(F)c2)[C@@H]1C [Example 81] | 161 |
| COc1ccc(CCC(=O)O)cc1-c1ccc(N2CCC2)nc1CN1C(=O)O[C@H](c2cc(F)cc(F)c2)[C@@H]1C [Example 82] | 484 |
| COc1ccc([C@@H]2C[C@H]2C(=O)O)cc1-c1ccc(N2CCC2)nc1CN1C(=O)O[C@H](c2cc(F)cc(F)c2)[C@@H]1C [Example 83] | 134 |
| COc1ccc([C@H]2C[C@@H]2C(=O)O)cc1-c1ccc(N2CCC2)nc1CN1C(=O)O[C@H](c2cc(F)cc(F)c2)[C@@H]1C [Example 84] | 73 |
| COc1ccc([C@H]2CC[C@H](C(=O)O)CC2)cc1-c1ccc(N2CCC2)nc1CN1C(=O)O[C@H](c2cc(F)cc(F)c2)[C@@H]1C [Example 85] | 84 |
| COc1cc2c(cc1-c1ccc(N3CCC3)nc1CN1C(=O)O[C@H](c3cc(F)cc(F)c3)[C@@H]1C)[C@H](CC(=O)O)CC2 [Example 86] | 415 |
| COc1cc(F)c(-c2ccc(C(=O)O)cc2C)cc1-c1ccc(N2CCC2)nc1CN1C(=O)O[C@H](c2cc(F)cc(F)c2)[C@@H]1C [Example 87] | 7 |
| CCc1ccc([C@@H]2C[C@H]2C(=O)O)cc1-c1ccc(N2CCC2)nc1CN1C(=O)O[C@H](c2cc(C(F)(F)F)cc(C(F)(F)F)c2)[C@@H]1C [Example 88] | 9 |
| COc1ccc([C@H]2C[C@@H](C(=O)O)C2)cc1-c1ccc(N2CCC2)nc1CN1C(=O)O[C@H](c2cc(C(F)(F)F)cc(C(F)(F)F)c2)[C@@H]1C [Example 89] | 29 |
| COc1ccc([C@H]2C[C@H](C(=O)O)C2)cc1-c1ccc(N2CCC2)nc1CN1C(=O)O[C@H](c2cc(C(F)(F)F)cc(C(F)(F)F)c2)[C@@H]1C [Example 90] | 6 |
| COc1ccc([C@H]2C[C@@H](CC(=O)O)C2)cc1-c1ccc(N2CCC2)nc1CN1C(=O)O[C@H](c2cc(C(F)(F)F)cc(C(F)(F)F)c2)[C@@H]1C [Example 91] | 10 |
| COc1ccc([C@H]2C[C@H](CC(=O)O)C2)cc1-c1ccc(N2CCC2)nc1CN1C(=O)O[C@H](c2cc(C(F)(F)F)cc(C(F)(F)F)c2)[C@@H]1C [Example 92] | 5 |
| COc1ccc(-c2cc(C(=O)O)on2)cc1-c1ccc(N2CCC2)nc1CN1C(=O)O[C@H](c2cc(C(F)(F)F)cc(C(F)(F)F)c2)[C@@H]1C [Example 93] | 18 |
| COc1ccc(-c2nn(C)c(C(=O)O)c2C)cc1-c1ccc(N2CCC2)nc1CN1C(=O)O[C@H](c2cc(C(F)(F)F)cc(C(F)(F)F)c2)[C@@H]1C [Example 94] | 12 |

| SMILES | IC50 [nM] |
| --- | --- |
| COc1ccc(-c2cnc(C(=O)O)cn2)cc1-c1ccc(N2CCC2)nc1CN1C(=O)O[C@H](c2cc(C(F)(F)F)cc(C(F)(F)F)c2)[C@@H]1C [Example 95] | 34 |
| COc1ccc([C@H]2C[C@@H](C(=O)O)C2)cc1-c1c(C)cc(N2CCC2)nc1CN1C(=O)O[C@H](c2cc(C(F)(F)F)cc(C(F)(F)F)c2)[C@@H]1C [Example 96] | 8 |
| COc1ccc([C@H]2C[C@H](C(=O)O)C2)cc1-c1c(C)cc(N2CCC2)nc1CN1C(=O)O[C@H](c2cc(C(F)(F)F)cc(C(F)(F)F)c2)[C@@H]1C [Example 97] | 4 |
| COc1ccc(CCC(=O)O)cc1-c1ccc(N2CCC2)nc1CN1C(=O)O[C@H](c2cc(F)c(F)c(F)c2)[C@@H]1C [Example 98] | 223 |
| COc1ccc([C@H]2CC[C@H](C(=O)O)CC2)cc1-c1ccc(N2CCC2)nc1CN1C(=O)O[C@H](c2cc(F)c(F)c(F)c2)[C@@H]1C [Example 101] | 37 |
| COc1cc(F)c(-c2ccc(C(=O)O)cc2C)cc1-c1ccc(N2CCC2)nc1CN1C(=O)O[C@H](c2cc(F)c(F)c(F)c2)[C@@H]1C [Example 102] | 8 |
| COc1cc(F)c([C@H]2C[C@@H](C(=O)O)C2)cc1-c1ccc(N2CCC2)nc1CN1C(=O)O[C@H](c2cc(C(F)(F)F)cc(C(F)(F)F)c2)[C@@H]1C [Example 103] | 31 |
| COc1cc(F)c([C@H]2C[C@H](C(=O)O)C2)cc1-c1ccc(N2CCC2)nc1CN1C(=O)O[C@H](c2cc(C(F)(F)F)cc(C(F)(F)F)c2)[C@@H]1C [Example 104] | 4 |
| COc1ccc(-c2ccc(C(=O)O)s2)cc1-c1ccc(N2CCC2)nc1CN1C(=O)O[C@H](c2cc(C(F)(F)F)cc(C(F)(F)F)c2)[C@@H]1C [Example 105] | 51 |
| COc1ccc(-c2sc(C(=O)O)cc2C)cc1-c1ccc(N2CCC2)nc1CN1C(=O)O[C@H](c2cc(C(F)(F)F)cc(C(F)(F)F)c2)[C@@H]1C [Example 106] | 12 |
| COc1ccc(-c2csc(C(=O)O)c2)cc1-c1ccc(N2CCC2)nc1CN1C(=O)O[C@H](c2cc(C(F)(F)F)cc(C(F)(F)F)c2)[C@@H]1C [Example 107] | 72 |
| COc1ccc(-c2csc(C(=O)O)c2C)cc1-c1ccc(N2CCC2)nc1CN1C(=O)O[C@H](c2cc(C(F)(F)F)cc(C(F)(F)F)c2)[C@@H]1C [Example 108] | 5 |
| COc1ccc(-c2cc(C(=O)O)sc2C)cc1-c1ccc(N2CCC2)nc1CN1C(=O)O[C@H](c2cc(C(F)(F)F)cc(C(F)(F)F)c2)[C@@H]1C [Example 109] | 9 |
| COc1ccc(-c2csc(C(=O)O)c2OC)cc1-c1ccc(N2CCC2)nc1CN1C(=O)O[C@H](c2cc(C(F)(F)F)cc(C(F)(F)F)c2)[C@@H]1C [Example 110] | 44 |
| COc1ccc(-c2sc(C(=O)O)c(C)c2C)cc1-c1ccc(N2CCC2)nc1CN1C(=O)O[C@H](c2cc(C(F)(F)F)cc(C(F)(F)F)c2)[C@@H]1C [Example 111] | 5 |
| COc1ccc(-c2ccc(C(=O)O)o2)cc1-c1ccc(N2CCC2)nc1CN1C(=O)O[C@H](c2cc(C(F)(F)F)cc(C(F)(F)F)c2)[C@@H]1C [Example 112] | 184 |
| COc1ccc(-c2cc(C(=O)O)co2)cc1-c1ccc(N2CCC2)nc1CN1C(=O)O[C@H](c2cc(C(F)(F)F)cc(C(F)(F)F)c2)[C@@H]1C [Example 113] | 29 |
| COc1ccc(-c2ncc(C(=O)O)s2)cc1-c1ccc(N2CCC2)nc1CN1C(=O)O[C@H](c2cc(C(F)(F)F)cc(C(F)(F)F)c2)[C@@H]1C [Example 114] | 50 |
| COc1ccc(-c2nc(C(=O)O)cs2)cc1-c1ccc(N2CCC2)nc1CN1C(=O)O[C@H](c2cc(C(F)(F)F)cc(C(F)(F)F)c2)[C@@H]1C [Example 115] | 285 |
| COc1ccc(-c2nc(C)c(C(=O)O)s2)cc1-c1ccc(N2CCC2)nc1CN1C(=O)O[C@H](c2cc(C(F)(F)F)cc(C(F)(F)F)c2)[C@@H]1C [Example 116] | 77 |
| COc1ccc(-c2ncc(C(=O)O)n2C)cc1-c1ccc(N2CCC2)nc1CN1C(=O)O[C@H](c2cc(C(F)(F)F)cc(C(F)(F)F)c2)[C@@H]1C [Example 117] | 25 |
| COc1ccc(-c2c(C)cc(C(=O)O)n2C)cc1-c1ccc(N2CCC2)nc1CN1C(=O)O[C@H](c2cc(C(F)(F)F)cc(C(F)(F)F)c2)[C@@H]1C [Example 119] | 5 |
